According to patent US20020039567A1, “Methods of treating bone or cartilage conditions by the administration of creatine” (priority 1998, published 2002):

How the values were obtained:
[1] = test system: osteoblasts (micromass culture); test: Mineralization, micromass osteoblast cell culture; type: cell-based, rat
Description: This isolation technique is based on the ability of osteoblasts to migrate from bone onto a substratum. Parietal and frontal calvariae (4 per animal) were aseptically explanted from 6 day-old IcoIbm rats. The calvariae were placed in Tyrode's balanced salt solution, calcium and magnesium free (TESS). The periosteum was enzymatically removed with 0.05% trypsin and 0.02% collagenase A (0.76 U/mg) dissolved in TBSS (40 calvaria/20 ml). The calvariae were shaken for 70 minutes in a waterbath at 37° C. They were washed with TESS and then transferred to 60 mm culture dishes (40 calvariae/dish) containing 5 ml of 0.02% collagenase A (0.76 U/mg) in culture medium BGJb Fitton-Jackson modification and placed in the incubator for 4 hours. The calvariae were then washed with culture medium B supplemented with 10% foetal calf serum (FCS). The calvariae were transferred into 60 mm culture dishes (4 frontal and 4 parietal/dish). The growth medium supplemented with 10% FCS and 50 μg/ml ascorbate was completely changed every 48 hours. The culture was kept for 3 weeks. After 3 weeks the migrated cells were harvested. The dish was washed with TESS, and 5 ml of TESS containing 0.05% trypsin and 0.02% collagenase A (0.76 U/mg) was added. After 1 hour in the incubator, the dish was washed with culture medium BGJb supplemented with 10% FCS. The dishes containing the calvariae and cells were rinsed with serum containing media BGJb. The cells obtained were filtered through a 40 μm nylon mesh to remove bone debris and cell aggregates. The suspended cells were centrifuged at 600 g for 5 minutes. The cell pellet was resuspended in serum containing medium BGJb and centrifuged. The viability of the resuspended cells was examined by the dye exclusion of 0.4% trypan blue, and the cells were counted in a haeinocytometer. The inoculation densities were 2·10^5/10 cm^2 for monolayer and 2·10^5/30 μl for micromasses. The micromass cultures were kept for 1 hour in the incubator before 2 ml growth medium was added. All the cultures were kept at 37° C. in a humidified atmosphere of 5% CO2, 95% air. All culture media were supplemented with 50 μg/ml ascorbate. To analyze the collagen types, 60 μg/ml beta-aminopropionitrile (beta-APN) was added to the culture medium. During cell isolation and inoculation, no ascorbate was used to increase plating efficiency. No antibiotics and no beta-glycerophosphate were added. The media were completely changed every 48 hours (60 mm culture dish 5 ml; 35 mm culture dish 2 ml). The most specific method for detecting calcified matrices is the von Kossa reaction. Silver staining indicates the presence of calcium phosphate aggregated with certain organic acids. Structural details are completely obscured by the dark precipitate. Calcified tissue components are darkened in various shades from light brown to deep black, irrespective of their mineral content. [table]

[2] = test system: osteoblasts (micromass culture); test: Cell viability (neutral red uptake), micromass osteoblast cell culture; type: cell-based, rat; conditions: 20 mM creatine; 3 weeks; vs control (p<0.005) and 10 mM creatine (p<0.003)
Description: This isolation technique is based on the ability of osteoblasts to migrate from bone onto a substratum. Parietal and frontal calvariae (4 per animal) were aseptically explanted from 6 day-old IcoIbm rats. The calvariae were placed in Tyrode's balanced salt solution, calcium and magnesium free (TESS). The periosteum was enzymatically removed with 0.05% trypsin and 0.02% collagenase A (0.76 U/mg) dissolved in TBSS (40 calvaria/20 ml). The calvariae were shaken for 70 minutes in a waterbath at 37° C. They were washed with TESS and then transferred to 60 mm culture dishes (40 calvariae/dish) containing 5 ml of 0.02% collagenase A (0.76 U/mg) in culture medium BGJb Fitton-Jackson modification and placed in the incubator for 4 hours. The calvariae were then washed with culture medium B supplemented with 10% foetal calf serum (FCS). The calvariae were transferred into 60 mm culture dishes (4 frontal and 4 parietal/dish). The growth medium supplemented with 10% FCS and 50 μg/ml ascorbate was completely changed every 48 hours. The culture was kept for 3 weeks. […] The viability of the resuspended cells was examined by the dye exclusion of 0.4% trypan blue, and the cells were counted in a haeinocytometer. […] The absorbance of the supernatant (3 aliquots/dish) was read at 540 nm versus extraction buffer. […] If the absorbance was higher than 1, the samples were diluted with extraction buffer.

epiphyseal growth plate = conditions: feeding rats with GPA; cited from earlier work

| Compound | mineralized area (FIG. 4) ([1]; 10 mM creatine vs control, 2 weeks, p<0.00025) | mineralized area (FIG. 4) ([1]; 10 mM creatine vs control, 3 weeks, p<0.0035) | mineralization (FIG. 4) ([1]; 10 mM creatine, 3 weeks vs 2 weeks, p<0.0015) | mineralized area (FIG. 4) ([1]; 20 mM creatine vs control, 2 weeks, p<0.00025) | mineralized area (FIG. 4) ([1]; 20 mM creatine vs control, 3 weeks, p<0.03) | NR uptake [2] | epiphyseal growth plate morphology (epiphyseal growth plate) |
| --- | --- | --- | --- | --- | --- | --- | --- |
| CN(CC(=O)O)C(=N)N [creatine] | significantly more mineralization | significantly higher | significantly higher mineralization | significantly more mineralization | significantly higher | significantly lower NR uptake |  |
| N=C(N)NCCC(=O)O [GPA, beta-guanidinopropionic acid] |  |  |  |  |  |  | marked abnormalities |
